pIC50: −log10 of the molar value. Bridge positions count the residues as written; N and C are the ends. Square brackets hold non-standard residues; d marks the D form. Peptide text beside a SMILES is read from it. ξ: configuration not given here. Trp(1-Me) = Cn1cc(C[C@H](N)C(=O)O)c2ccccc21; 2Nal = N[C@@H](Cc1ccc2ccccc2c1)C(=O)O; dOrn = NCCC[C@@H](N)C(=O)O; ξOrn = NCCCC(N)C(=O)O; Aib = CC(C)(N)C(=O)O
Target: Interleukin-23 subunit alpha/receptor (UniProt Q5VWK5)
Test: ELISA assay for specific human IL-23R inhibitors
Experimental: A 384-well plate was coated with 50 µl/well of human IL-23 at a final concentration of […] and incubated overnight at 4°C. The wells were washed 3 times with […] wash buffer and blocked with […] blocking buffer for 60 minutes at room temperature and washed again. 20 µl of serially diluted test peptides was added to each well and subsequently 20 µl of recombinant human IL-23R-Fc chimera at final concentration of […]. The plate was incubated for 60 minutes at room temperature. After the wells were washed, bound IL-23R-Fc was detected with goat anti-hu- IgG 1 -HRP antibody. Signals were visualized with QuantaBlu Fluorogenic Peroxidase Substrate.

Interleukin-23 subunit alpha/receptor, sequence (Q9NPF7 whole entry): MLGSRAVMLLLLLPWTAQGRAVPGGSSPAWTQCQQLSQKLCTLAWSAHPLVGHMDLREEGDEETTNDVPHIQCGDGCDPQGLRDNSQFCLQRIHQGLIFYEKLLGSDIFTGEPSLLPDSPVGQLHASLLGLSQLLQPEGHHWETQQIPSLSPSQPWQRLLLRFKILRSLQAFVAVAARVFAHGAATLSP
Interleukin-23 subunit alpha/receptor, sequence (Q5VWK5 whole entry): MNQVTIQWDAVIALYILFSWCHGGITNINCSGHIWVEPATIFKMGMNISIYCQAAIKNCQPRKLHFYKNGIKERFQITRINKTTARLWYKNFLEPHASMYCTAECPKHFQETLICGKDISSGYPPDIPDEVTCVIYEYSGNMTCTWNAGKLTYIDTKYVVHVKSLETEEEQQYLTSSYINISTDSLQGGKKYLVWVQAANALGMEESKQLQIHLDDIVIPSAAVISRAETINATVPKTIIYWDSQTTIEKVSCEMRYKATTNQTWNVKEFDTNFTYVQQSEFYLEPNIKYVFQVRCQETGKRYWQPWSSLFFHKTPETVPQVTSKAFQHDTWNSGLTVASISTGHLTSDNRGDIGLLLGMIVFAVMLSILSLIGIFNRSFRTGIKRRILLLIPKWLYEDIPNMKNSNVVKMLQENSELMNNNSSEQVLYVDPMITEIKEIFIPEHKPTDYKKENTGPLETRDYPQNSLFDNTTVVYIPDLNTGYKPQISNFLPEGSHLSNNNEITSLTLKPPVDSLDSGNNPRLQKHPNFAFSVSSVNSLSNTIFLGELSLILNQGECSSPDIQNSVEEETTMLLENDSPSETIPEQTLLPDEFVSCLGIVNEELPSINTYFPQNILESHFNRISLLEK

First: COc1ccc(C[C@@H]2NC(=O)[C@H](C)NC(=O)[C@H](CCC(N)=O)NC(=O)[C@H](Cc3c[nH]c4ccccc34)NC(=O)[C@H]([C@@H](C)O)NC(=O)[C@H](CCCNC(=N)N)NC(=O)[C@H](NC(C)=O)CCCCNC(=O)C[C@@H](C(=O)N[C@@H](CC(N)=O)C(=O)N[C@@H](CC(N)=O)C(=O)O)NC(=O)C(C)(C)NC(=O)[C@H](Cc3ccc4ccccc4c3)NC2=O)cc1 [WO2025051920, Example 45]
Second: COc1ccc(C[C@@H]2NC(=O)[C@H](CCCNC(=N)N)NC(=O)[C@H](CCC(N)=O)NC(=O)[C@H](Cc3c[nH]c4ccccc34)NC(=O)[C@H]([C@@H](C)O)NC(=O)[C@H](CC(N)=O)NC(=O)[C@H](NC(C)=O)CCCNC(=O)C[C@@H](C(=O)N[C@@H](CC(N)=O)C(=O)N[C@@H](CC(N)=O)C(N)=O)NC(=O)C(C)(C)NC(=O)[C@H](Cc3ccc4ccccc4c3)NC2=O)cc1 [WO2025051920, Example 27] (Ac-[dOrn]NTWQRY(Me)[2Nal][Aib]DNN-NH2; lactam 1-10)
The pIC50 of the first is 1.32 log units higher: 9.02 for the first, 7.70 for the second. The first is the more potent here.

`CC(=O)N[C@H]1CC(=O)NCCCC(C(=O)N[C@@H](CC(N)=O)C(=O)N[C@@H](CC(N)=O)C(=O)O)NC(=O)C(C)(C)NC(=O)[C@H](Cc2ccc3ccccc3c2)NC(=O)[C@H](Cc2ccc(O)cc2)NC(=O)[C@H](CCCNC(=N)N)NC(=O)[C@H](CCC(N)=O)NC(=O)[C@H](Cc2cn(C)c3ccccc23)NC(=O)[C@H]([C@@H](C)O)NC(=O)[C@H](CC(N)=O)NC1=O` (stereo partly drawn) [WO2025051920, Example 33] (Ac-DNT[Trp(1-Me)]QRY[2Nal][Aib][ξOrn]NN-OH; lactam 1-10) and `COc1ccc(C[C@@H]2NC(=O)[C@H](CCCNC(=N)N)NC(=O)[C@H](CCC(N)=O)NC(=O)[C@H](Cc3cn(C)c4ccccc34)NC(=O)[C@H]([C@@H](C)O)NC(=O)[C@H](CC(N)=O)NC(=O)[C@@H](NC(C)=O)CCC(=O)NCCCC(C(=O)N[C@@H](CC(N)=O)C(=O)N[C@@H](CC(N)=O)C(=O)O)NC(=O)C(C)(C)NC(=O)[C@H](Cc3ccc4ccccc4c3)NC2=O)cc1` (stereo partly drawn) [WO2025051920, Example 35] (Ac-ENT[Trp(1-Me)]QRY(Me)[2Nal][Aib][ξOrn]NN-OH; lactam 1-10) are within 0.2 log units of each other in pIC50: 8.47 for the first, 8.34 for the second.

`COc1ccc(C[C@@H]2NC(=O)C(C)(C)NC(=O)[C@H](CCC(N)=O)NC(=O)[C@H](Cc3c[nH]c4ccccc34)NC(=O)[C@H]([C@@H](C)O)NC(=O)[C@H](CC(N)=O)NC(=O)[C@H](NC(C)=O)CCCCNC(=O)C[C@@H](C(=O)N[C@@H](CC(N)=O)C(=O)N[C@@H](CC(N)=O)C(=O)O)NC(=O)C(C)(C)NC(=O)[C@H](Cc3ccc4ccccc4c3)NC2=O)cc1` [WO2025051920, Example 32] and `COc1ccc(C[C@@H]2NC(=O)[C@H](CCCNC(=N)N)NC(=O)[C@H](CCC(N)=O)NC(=O)[C@H](Cc3c[nH]c4ccccc34)NC(=O)[C@H]([C@@H](C)O)NC(=O)[C@H](CC(N)=O)NC(=O)[C@@H](NC(C)=O)CC(=O)NCCCC(C(=O)N[C@@H](CC(N)=O)C(=O)N[C@@H](CC(N)=O)C(=O)O)NC(=O)C(C)(C)NC(=O)[C@H](Cc3ccc4ccccc4c3)NC2=O)cc1` (stereo partly drawn) [WO2025051920, Example 6] are within 0.2 log units of each other in pIC50: 8.57 for the first, 8.71 for the second.

Compared with `COc1ccc(C[C@@H]2NC(=O)[C@H](CCCNC(=N)N)NC(=O)[C@H](CCC(N)=O)NC(=O)[C@H](Cc3c[nH]c4ccccc34)NC(=O)[C@H]([C@@H](C)O)NC(=O)[C@H](CC(N)=O)NC(=O)[C@H](NC(C)=O)CCCCNC(=O)C[C@@H](C(=O)N[C@@H](CC(N)=O)C(=O)N[C@@H](CC(N)=O)C(=O)O)NC(=O)[C@H](CCCNC(N)=O)NC(=O)[C@H](Cc3cccc4ccccc34)NC2=O)cc1` [WO2025051920, Example 18], `COc1ccc(C[C@@H]2NC(=O)[C@H](CCCNC(=N)N)NC(=O)[C@H](CCC(N)=O)NC(=O)[C@H](Cc3c[nH]c4ccccc34)NC(=O)[C@H]([C@@H](C)O)NC(=O)[C@H](CC(N)=O)NC(=O)[C@H](NC(C)=O)CCCNC(=O)CC[C@@H](C(=O)N[C@@H](CC(N)=O)C(=O)N[C@@H](CC(N)=O)C(=O)O)NC(=O)C(C)(C)NC(=O)[C@H](Cc3cccc4ccccc34)NC2=O)cc1` [WO2025051920, Example 22] is 0.61 log units lower in pIC50: 7.93 for the first, 7.32 for the second. The first is the more potent here.
